A word on the IC50: it is the concentration at which inhibition is half-maximal.

Structures are written as SMILES.

The target of the experiment is T1, Recombinant human BRD4 containing dual bromodomains (BRD4-BD12 (1-477)) (Homo sapiens, UniProt O60885).
T1 construct: Recombinant human BRD4 containing dual bromodomains (BRD4-BD12 (1-477)); made in house; host or cells: E. coli BL21-CodonPlus (DE3), modified pET vector
The experiment is described as follows: BRD4 Alphascreen binding assay. In a few lines: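 AlphaScreen proximity between Ni-chelate-bound BRD4-BD12 (1-477) and streptavidin-captured H4 K5/K8/K12/K16-acetyl peptide measured after 1 h room-temperature compound incubation and 30 min with 7.5 μg/ml beads. Buffer: 50 mM HEPES pH 7.5, 50 mM NaCl, 0.01% BSA, 0.01% Triton X-100; data plate-normalized and four-parameter fit for IC50.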
A general note: Alpha assays give light when donor and acceptor beads are brought close together.

Regarding `Cc1cc(C(=O)O)ccc1-c1c(C(F)(F)F)n([C@@H](C)c2ccccn2)c2cc(-c3c(C)noc3C)cnc12` [P-0235, (S)-4-(6-(3,5-dimethylisoxazol-4-yl)-1-(1-(pyridin-2-yl)ethyl)-2-(trifluoromethyl)-1H-pyrrolo[3,2-b]pyridin-3-yl)-3-methylbenzoic acid], the IC50 lay within 8 to 1000 µM.
The same measure for `COc1cc(C(=O)O)ccc1-c1c(C(F)(F)F)n([C@@H](C)c2ccccn2)c2cc(-c3c(C)noc3C)cnc12` [P-0236, (S)-4-(6-(3,5-dimethylisoxazol-4-yl)-1-(1-(pyridin-2-yl)ethyl)-2-(trifluoromethyl)-1H-pyrrolo[3,2-b]pyridin-3-yl)-3-methoxybenzoic acid]: 1 to 8 µM.
The same measure for `Cc1noc(C)c1-c1cnc2c(-c3cn(C)nc3C3CC3)c(C(F)(F)F)n([C@@H](C)c3ccccn3)c2c1` [P-0237, (S)-4-(3-(3-cyclopropyl-1-methyl-1H-pyrazol-4-yl)-1-(1-(pyridin-2-yl)ethyl)-2-(trifluoromethyl)-1H-pyrrolo[3,2-b]pyridin-6-yl)-3,5-dimethylisoxazole]: 1 to 8 µM; for `Cc1noc(C)c1-c1cnc2c(-c3cc(C(=O)O)ccc3F)c(C(F)(F)F)n([C@@H](C)c3ccccn3)c2c1` [P-0238, (S)-3-(6-(3,5-dimethylisoxazol-4-yl)-1-(1-(pyridin-2-yl)ethyl)-2-(trifluoromethyl)-1H-pyrrolo[3,2-b]pyridin-3-yl)-4-fluorobenzoic acid]: 1 to 8 µM; for `COc1ccc(C(=O)O)cc1-c1c(C(F)(F)F)n([C@@H](C)c2ccccn2)c2cc(-c3c(C)noc3C)cnc12` [P-0239, (S)-3-(6-(3,5-dimethylisoxazol-4-yl)-1-(1-(pyridin-2-yl)ethyl)-2-(trifluoromethyl)-1H-pyrrolo[3,2-b]pyridin-3-yl)-4-methoxybenzoic acid]: 8 to 1000 µM.
With `Cc1noc(C)c1-c1cnc2c(-c3cc(F)cc(C(=O)O)c3)c(C(F)(F)F)n([C@@H](C)c3ccccn3)c2c1` [P-0240, (S)-3-(6-(3,5-dimethylisoxazol-4-yl)-1-(1-(pyridin-2-yl)ethyl)-2-(trifluoromethyl)-1H-pyrrolo[3,2-b]pyridin-3-yl)-5-fluorobenzoic acid] the figure was 8 to 1000 µM; with `Cc1noc(C)c1-c1cnc2c(-c3cc(Cl)cc(C(=O)O)c3)c(C(F)(F)F)n([C@@H](C)c3ccccn3)c2c1` [P-0241, (S)-3-chloro-5-(6-(3,5-dimethylisoxazol-4-yl)-1-(1-(pyridin-2-yl)ethyl)-2-(trifluoromethyl)-1H-pyrrolo[3,2-b]pyridin-3-yl)benzoic acid], 8 to 1000 µM.
For the molecule `Cc1noc(C)c1-c1cnc2c(-c3ccc(C(=O)O)c(F)c3)c(C(F)(F)F)n([C@@H](C)c3ccccn3)c2c1` [P-0242, (S)-4-(6-(3,5-dimethylisoxazol-4-yl)-1-(1-(pyridin-2-yl)ethyl)-2-(trifluoromethyl)-1H-pyrrolo[3,2-b]pyridin-3-yl)-2-fluorobenzoic acid], the IC50 was 8 to 1000 µM.

The record behind these values is patent US11446287B2, “Compounds and methods for EP300 or CBP modulation and indications therefor” (Opna Immuno-Oncology SA, priority 2019, dated 2022).
